# Measured values published in patent US20240352046A1, “ECTONUCLEOTIDE PYROPHOSPHATASE-PHOSPHODIESTERASE-1 (ENPP1) INHIBITORS AND USES THEREOF” (1cBio, Inc., priority 2020, published 2024).
# Target: ENPP-1 (Ectonucleotide Pyrophosphatase/Phosphodiesterase 1) (Homo sapiens (Human), UniProt P22413)
# Experiment: ENPP1 inhibition assay (AMP Glo, cGAMP substrate)
# Format: biochemical
# Settings: cGAMP 20 μM substrate, ENPP1 1 nM
# Protocol: IC50 values of compounds against ENPP-1 (Ectonucleotide Pyrophosphatase/Phosphodiesterase 1) were determined at Integral BioSciences (India) using AMP Glo (Promega, Cat #V5011). Assay was performed in a 30 μL final volume in a white 96-well Half Area plate (Costar,Cat #3693). Dose response curve for the compounds were prepared in duplicates with starting conc. at 5 μM and a three-fold titration was performed. The reaction buffer consisted of 50 mM Tris (pH 8.0), 0.5 mM CaCl2), 1 μM ZnCl2, 250 mM NaCl and 0.1 mg/ml BSA. To the compound dilution, 15 μL of ENPP1 enzyme (R&D Systems; Cat #6136-EN-010) was added to each well (final conc. 1 nM) and the mix was pre-incubated for 15 min at RT. An equal volume (15 μL) containing cGAMP (Sigma, Cat #SML-1229) (final conc. 20 μM) was added to initiate the enzyme reaction and the reaction was incubated for 30 min at RT. The reaction was then stopped by heating at 90° C. for 3 minutes. 10 μl of reaction was then transferred to 384 well white, medium binding plates (Grenier, Cat #781075) to which 10 μl of AMP-Glo Reagent 1 was added and mixed well and incubated for 1 hour at 25° C. Following 60 min incubation, 20 μL of detection mixture was added to the enzyme reaction bringing the final volume to 40 μL. The reaction was further incubated for 60 min at RT after which the plates were read using BioTek Plate reader.
# Analysis was done using the standard curve by non-linear regression, variable slope inhibitor curve fits (Graph-Pad Prism) and IC50's of compounds were determined wherever possible.
# ENPP-1 (Ectonucleotide Pyrophosphatase/Phosphodiesterase 1), sequence (P22413 whole entry): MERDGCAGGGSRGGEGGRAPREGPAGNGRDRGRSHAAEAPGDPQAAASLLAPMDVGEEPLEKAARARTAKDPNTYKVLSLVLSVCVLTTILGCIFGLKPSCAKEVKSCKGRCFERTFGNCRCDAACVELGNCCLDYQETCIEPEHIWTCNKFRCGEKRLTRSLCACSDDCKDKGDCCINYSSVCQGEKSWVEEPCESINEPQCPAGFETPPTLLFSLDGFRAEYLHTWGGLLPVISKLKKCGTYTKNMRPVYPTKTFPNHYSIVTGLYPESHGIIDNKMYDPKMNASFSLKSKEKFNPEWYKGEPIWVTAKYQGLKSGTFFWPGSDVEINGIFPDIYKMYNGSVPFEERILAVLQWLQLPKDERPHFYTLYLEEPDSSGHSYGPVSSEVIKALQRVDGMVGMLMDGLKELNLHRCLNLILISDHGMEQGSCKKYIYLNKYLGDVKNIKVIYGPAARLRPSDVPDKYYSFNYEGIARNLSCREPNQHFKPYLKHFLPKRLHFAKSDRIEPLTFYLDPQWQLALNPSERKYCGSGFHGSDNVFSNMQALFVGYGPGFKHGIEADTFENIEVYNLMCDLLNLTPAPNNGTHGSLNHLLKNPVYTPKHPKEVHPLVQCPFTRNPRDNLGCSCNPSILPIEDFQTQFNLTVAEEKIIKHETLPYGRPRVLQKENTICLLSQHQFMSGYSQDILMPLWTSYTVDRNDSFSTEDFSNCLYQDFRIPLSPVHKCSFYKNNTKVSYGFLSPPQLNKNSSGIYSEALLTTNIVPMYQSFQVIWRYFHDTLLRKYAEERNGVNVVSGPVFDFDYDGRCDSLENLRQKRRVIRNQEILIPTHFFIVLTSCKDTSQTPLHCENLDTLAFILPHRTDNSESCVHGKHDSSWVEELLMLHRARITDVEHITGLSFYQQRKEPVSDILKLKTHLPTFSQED
row,Compound,IC50 [µM]
1,"Cc1cc(Cl)n2ncnc(N3CC4(CC(N(C5CCC5)S(N)(=O)=O)C4)C3)c12 [Compound 1.111, N-(2-(7-chloro-5-methylpyrrolo[2,1-f][1,2,4]triazin-4-yl)-2-azaspiro[3.3]heptan-6-yl)-N-cyclobutylsulfamamide]",0.398
2,"COc1ccc2ncnc(N3CC(CCNS(N)(=O)=O)C3)c2c1 [Compound 1.16, 4-(3-(2-sulfamoylaminoethyl)azetidine-1-yl)-6-methoxyquinazoline]",0.076
3,"Cc1cc(Cl)n2ncnc(N3CC4(CC(N(C)Cc5ccc(S(N)(=O)=O)cc5)C4)C3)c12 [Compound 1.133, 4-(((2-(7-chloro-5-methylpyrrolo[2,1-f][1,2,4]triazin-4-yl)-2-azaspiro[3.3]heptan-6-yl)(methyl)amino)methyl)benzenesulfonamide]",0.27
4,"Cc1cc(Cl)n2ncnc(N3CC(CCN(C)S(N)(=O)=O)C3)c12 [Compound 1.84, N-(2-(1-(7-chloro-5-methylpyrrolo[1,2-f][1,2,4]triazin-4-yl)azetidin-3-yl)ethyl)-N-methylsulfamide]",> 2.25
5,"CN(C1CC2(C1)CN(c1ncnc3scc(-c4ccccc4)c13)C2)S(N)(=O)=O [Compound 1.100, N-methyl-N-(2-(5-phenylthieno[2,3-d]pyrimidin-4-yl)-2-azaspiro[3.3]heptan-6-yl)sulfamamide]",> 3
6,Cc1cc(Cl)n2ncnc(N3CC(CN(C)S(N)(=O)=O)C3)c12 [Compound 1.86],0.106
7,"COc1cc2nc(-c3ccn(C)n3)nc(N3CC(CCNS(N)(=O)=O)C3)c2cc1OC [Compound 1.36, 6,7-dimethoxy-2-(1-methylpyrazol-3-yl)-4-[3-[2-(sulfamoylamino)ethyl]azetidin-1-yl]quinazoline]",0.464
8,"NS(=O)(=O)NCCC1CN(c2ncnc3cc4c(cc23)OCO4)C1 [Compound 1.18, 8-(3-(2-sulfamoylaminoethyl)azetidine-1-yl)-[1,3]dioxolo[4,5-g]quinazoline]",> 3
9,"COc1ccc2c(N3CC(CCNS(N)(=O)=O)C3)ncnc2c1OC [Compound 1.31, 4-(3-(2-sulfamoylaminoethyl)azetidine-1-yl)-7,8-dimethoxyquinazoline]",> 3
10,"Cc1cc(Cl)n2ncnc(N3CC4(CC(NCc5ccc(S(N)(=O)=O)cc5)C4)C3)c12 [Compound 1.132, 4-(((2-(7-chloro-5-methylpyrrolo[2,1-f][1,2,4]triazin-4-yl)-2-azaspiro[3.3]heptan-6-yl)amino)methyl)benzenesulfonamide]",0.181
11,"COc1ccc2c(N3CC(CCNS(N)(=O)=O)C3)nc(C34CC5CC(CC(C5)C3)C4)nc2c1 [Compound 1.45, 2-(1-adamantyl)-7-methoxy-4-[3-[2-(sulfamoylamino)ethyl]azetidin-1-yl]quinazoline]",> 3
12,"COc1cc2c(N3CC(CCNS(N)(=O)=O)C3)ncnc2cn1 [Compound 1.3, (2-(1-(6-methoxypyrido[3,4-d]pyrimidin-4-yl)azetidin-3-yl)ethyl)aminisulfonamide]",0.22
13,"COc1cc2ncnc(N3CC(CCNS(N)(=O)=O)C3)c2cc1Br [Compound 1.41, 4-(3-(2-sulfamoylaminoethyl)azetidine-1-yl)-6-bromo-7-methoxyquinazoline]",0.737
14,"COc1cc2nccc(N3CC(CCNS(N)(=O)=O)C3)c2cc1OC [Compound 1.11, (2-(1-(6,7-dimethoxyquinolin-4-yl)azetidin-3-yl)ethyl)aminosulfonamide]",0.09
15,COc1cc(F)cc2c(N3CC(CCNS(N)(=O)=O)C3)ncnc12 [Compound 1.38],> 3
16,"CN(C1CC2(C1)CN(c1nc(N)nc3[nH]cnc13)C2)S(N)(=O)=O [Compound 1.108, N-(2-(2-amino-9H-purin-6-yl)-2-azaspiro[3.3]heptan-6-yl)-N-methylsulfamamide]",> 3
17,"Cc1cc(C)n2ncnc(N3CC4(CC(N(C)S(N)(=O)=O)C4)C3)c12 [Compound 1.77, N-(2-(5,7-dimethylpyrrolo[1,2-f][1,2,4]triazin-4-yl)-2-azaspiro[3.3]heptan-6-yl)-N-methylsulfamide]",0.295
18,"CCc1nc(N2CC(CCNS(N)(=O)=O)C2)c2cc(OC)c(OC)cc2n1 [Compound 1.61, 2-ethyl-6,7-dimethoxy-4-[3-[2-(sulfamoylamino)ethyl]azetidin-1-yl]quinazoline]",0.097
19,Cc1ccn2ncnc(N3CC4(CC(N(C)S(N)(=O)=O)C4)C3)c12 [Compound 1.73],0.247
20,"Cn1ncc2c(N3CC4(CC(N(CC(F)F)S(N)(=O)=O)C4)C3)ncnc21 [Compound 1.121, N-(2,2-difluoroethyl)-N-(2-(1-methyl-1H-pyrazolo[3,4-d]pyrimidin-4-yl)-2-azaspiro[3.3]heptan-6-yl)sulfamamide]",0.565
21,"CN(C1CC2(C1)CN(c1ncnc3c1cnn3C)C2)S(N)(=O)=O [Compound 1.105, N-methyl-N-(2(1-methyl-1H-pyrazolo[3,4-d]pyrimidin-4-yl)-2-azaspiro[3.3]heptan-6-yl)sulfamamide]",0.091
22,"Cc1c(Br)cn2ncnc(N3CC(CCNS(N)(=O)=O)C3)c12 [Compound 1.72, 4-(3-(2-sulfamoylaminoethyl)azetidine-1-yl)-6-bromo-5-methylpyrrolo[1,2-f][1,2,4]triazine]",> 3
23,"CCCN(CCC1CN(c2ncnn3c(Cl)cc(C)c23)C1)S(N)(=O)=O [Compound 1.95, N-(2-(1-(7-chloro-5-methylpyrrolo[2,1-f][1,2,4]triazin-4-yl)azetidin-3-yl)ethyl)-N-propylsulfamamide]",1.88

# Stronger by IC50, values ahead:
row,IC50 [µM],Compound
1,0.036,"COc1cc2ncnc(N3CC(/C=C/S(N)(=O)=O)C3)c2cc1OC [Compound 1.55, (E)-2-(1-(6,7-dimethoxyquinazolin-4-yl)azetidin-3-yl)ethenesulfonamide]"
2,0.069,"Cc1cc(Cl)n2ncnc(N3CC4(CC(N(CC5CCC5)S(N)(=O)=O)C4)C3)c12 [Compound 1.116, N-(2-(7-chloro-5-methylpyrrolo[2,1-f][1,2,4]triazin-4-yl)-2-azaspiro[3.3]heptan-6-yl)-N-(cyclobutylmethyl)sulfamide]"
3,0.028,"COc1cc2ncnc(N3CC(CNS(N)(=O)=O)C3)c2cc1OC [Compound 1.10, N-((1-(6,7-dimethoxyquinazolin-4-yl)azetidin-3-yl)methyl) aminisulfonamide]"
4,0.05,"Cc1cc(Cl)n2ncnc(N3CC4(CC(N(C[C@@H](O)C(F)(F)F)S(N)(=O)=O)C4)C3)c12 (stereo in doubt) [Compound 1.125, N-(2-(7-chloro-5-methylpyrrolo[2,1-f][1,2,4]triazin-4-yl)-2-azaspiro[3.3]heptan-6-yl)-N-(3,3,3-trifluoro-2-hydroxypropyl)sulfamide]"
5,0.004,"COc1cc2ncc(C#N)c(N3CC(CCNS(N)(=O)=O)C3)c2cc1OC [Compound 1.12, (2-(1-(3-cyano-6,7-dimethoxyquinolin-4-yl)azetidin-3-yl)ethyl)aminisulfonamide]"
6,0.053,"Cc1cc(Br)n2ncnc(N3CC4(CC(N(C)S(N)(=O)=O)C4)C3)c12 [Compound 1.79, N-(2-(7-bromo-5-methylpyrrolo[1,2-f][1,2,4]triazin-4-yl)-2-azaspiro[3.3]heptan-6-yl)-N-methylsulfamamide]"
7,0.067,Cc1ccn2ncnc(N3CC4(CC(NS(N)(=O)=O)C4)C3)c12 [Compound 1.62]
8,0.051,"Cc1cc(Cl)n2ncnc(N3CC4(CC(N(CC5CC5)S(N)(=O)=O)C4)C3)c12 [Compound 1.115, N-(2-(7-chloro-5-methylpyrrolo[2,1-f][1,2,4]triazin-4-yl)-2-azaspiro[3.3]heptan-6-yl)-N-(cyclopropylmethyl)sulfamamide]"
9,0.072,"Cc1cc(Cl)n2ncnc(N3CC4(CC(N(CC5CCC(F)(F)CC5)S(N)(=O)=O)C4)C3)c12 [Compound 1.118, N-(2-(7-chloro-5-methylpyrrolo[2,1-f][1,2,4]triazin-4-yl)-2-azaspiro[3.3]heptan-6-yl)-N-((4,4-difluorocyclohexyl)methyl)sulfamamide]"
10,0.036,"CCCN(C1CC2(C1)CN(c1ncnn3c(Cl)cc(C)c13)C2)S(N)(=O)=O [Compound 1.97, N-(2-(7-chloro-5-methylpyrrolo[2,1-f][1,2,4]triazin-4-yl)-2-azaspiro[3.3]heptan-6-yl)-N-propylsulfamamide]"
11,0.008,"COc1ccc2c(N3CC(CCNS(N)(=O)=O)C3)ncnc2c1 [Compound 1.8, (2-(1-(7-methoxyquinazolin-4-yl)azetidin-3-yl)ethyl)aminisulfonamide]"
12,0.019,"Cc1cc(Cl)n2ncnc(N3CC4(CC(N(CCC(F)(F)F)S(N)(=O)=O)C4)C3)c12 [Compound 1.93, N-(2-(7-chloro-5-methylpyrrolo[2,1-f][1,2,4]triazin-4-yl)-2-azaspiro[3.3]heptan-6-yl)-N-(3,3,3-trifluoropropyl)sulfamamide]"
13,0.062,"COCCN(C1CC2(C1)CN(c1ncnn3c(Cl)cc(C)c13)C2)S(N)(=O)=O [Compound 1.122, N-(2-(7-chloro-5-methylpyrrolo[1,2-f][1,2,4]triazin-4-yl)-2-azaspiro[3.3]heptan-6-yl)-N-(2-methoxyethyl)sulfamamide]"
